Data set [1] relates to SK-MEL, KB, BT-549, SK-OV-3, HeLa, LLC-PK1 and Vero cells. The experiment in a line: Cytotoxicity, summary over the cell line panel. The data set is classed as cell-based. The following applies: highest tested concentration of 50 µg/mL; most of the cells. As to the method: (§1) In vitro cytotoxic activity was determined against five human cancer cell lines—malignant melanoma (SK-MEL), epidermal carcinoma oral (KB), ductal carcinoma breast (BT-549), ovary carcinoma (SKOV-3) and cervical (HeLa) cancer cells—and two non-cancerous kidney cell lines (LLC-PK1 and Vero). All cell lines were obtained from the American Type Culture Collection (ATCC, Rockville, MD, USA). Each assay was performed in 96-well tissue culture-treated microplates. The cells were seeded at a density of 25,000 cells/well and incubated for 24 h. Samples at different concentrations were added, and the cells were incubated again for 48 h. At the end of the incubation, the cell viability was determined using Neutral Red dye according to a modification of the procedure used by Borenfreund et al.. IC50 values were determined from dose–response curves of the percent growth inhibition against test concentrations. Doxorubicin was used as a positive control, while DMSO was used as the negative (vehicle) control.

Another data set deals with ETS. Kind of data set: Luciferase reporter assay, ETS, T98G. The format is cell-based. Particulars: Homo sapiens; T98G cells; inducer PMA. As to the method: (§2) Hela cells (or T98G cells) from ATCC were plated in white opaque 384-well plates at a density of 4300 cells/well in 30 µL of growth medium (DMEM with 10% FBS and 1% Pen/Strep). The next day, the medium was aspirated and replaced with DMEM containing 1% FBS. The cells were transfected with respective plasmids using X-tremeGENE HP DNA transfection reagent (Roche). After 24 h of transfection, the test agents were added to the transfected cells, followed 30 min later by an inducing agent: interleukin 6 (IL-6) for Stat3, TGF-β for Smad, m-wnt3a for Wnt and PMA for AP-1, NF-κB, E2F, Myc, ETS, Notch and Hedgehog. No inducer was added for FoXO and pTK. After 4 h or 6 h of induction, the cells were lysed via the addition of the One-Glo luciferase assay system (Promega; Madison, WI). The light output was detected in a GloMax®-Multi+ Detection System with Instinct® Software (Promega E 8051). This luciferase assay determines if the test agent is able to inhibit the activation of cancer-related signaling pathways. In the case of FoxO, the enhanced luciferase activity via the test agent was assessed.

For another data set, the system named is E2F. The experiment in a line: Luciferase reporter assay, E2F, T98G. Particulars: Homo sapiens; T98G cells; inducer PMA. The format is cell-based. How it is done:
as §2

Data set [2] in a line: Cytotoxicity, Neutral Red, HeLa. The data set is classed as cell-based. Particulars: human, HeLa cervical cancer cells, Na = not active up to 50 µg/mL. How it is done: as §1
For a further data set, the system named is Hedgehog. The experiment in a line: Luciferase reporter assay, Hedgehog, T98G. The following applies: Homo sapiens; T98G cells; inducer PMA. The format is cell-based. As to the method:
as §2

A further data set deals with T1, μ opioid receptor (Homo sapiens, UniProt P35372).
T1 construct: host or cells: HEK293, stably transfected; membranes
T1 sequence (P35372 whole entry): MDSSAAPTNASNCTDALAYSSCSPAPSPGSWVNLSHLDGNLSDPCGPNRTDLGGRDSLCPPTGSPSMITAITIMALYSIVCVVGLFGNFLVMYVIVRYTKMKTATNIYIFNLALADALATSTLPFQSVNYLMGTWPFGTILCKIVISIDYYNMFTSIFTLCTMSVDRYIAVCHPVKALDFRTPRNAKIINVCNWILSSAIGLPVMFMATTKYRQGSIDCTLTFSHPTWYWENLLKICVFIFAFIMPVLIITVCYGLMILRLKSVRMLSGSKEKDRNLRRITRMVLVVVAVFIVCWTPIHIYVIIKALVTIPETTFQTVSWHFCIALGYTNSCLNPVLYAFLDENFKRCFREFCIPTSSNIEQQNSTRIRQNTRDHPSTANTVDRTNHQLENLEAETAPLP
Kind of data set: biochemical. The format is binding. As to the method:
HEK293 cells stably transfected with δ, κ and μ opioid subtypes were a generous gift from Roth Laboratories (University of North Carolina at Chapel Hill, N.C., USA). CB and opioid cells were maintained as previously described.
Membranes were purified by first washing the cells with cold PBS and scraping the cells into cold 50 mM Tris-HCl, pH 7.4 buffer, which was centrifuged at 5200× g for 10 min at 4 °C; next, the supernatant was discarded, and the pellet was washed with more Tris-HCl buffer, homogenized via a Sonic Dismembrator (Fisher Scientific, Pittsburgh, PA, USA) and then centrifuged at 24,000× g for 40 min at 4 °C. Finally, the pellet was re-suspended in cold 50 mM Tris-HCl buffer, aliquoted into 2 mL vials and stored at −80 °C. The total membrane protein concentration was measured using a Pierce BCA Protein Assay Kit (Thermo Scientific, Rockford, IL, USA) as per the manufacturer’s protocol.
Cannabinoid and opioid competitive radioligand binding assays were performed as previously described. Saturation experiments were performed for all the receptors to determine the receptor concentration and radioligand dissociation constant (Kd) for the membrane. Percent displacements were evaluated for all the cannabinoid and opioid subtypes with a triplicate of a fixed concentration (10 µg/mL for extracts and fractions and 10 μM for purified compounds). […] Control/test compounds were dissolved in DMSO at 10 μg/mL for extracts and fractions and 10 μM for purified compounds. […] The percent displacement was calculated to represent the ability of the samples to displace the radioligand binding for a given cannabinoid or opioid receptor subtype.
The percent displacement was calculated as follows: 100−binding of compound−nonspecific binding/specific binding×100
The competitive binding assays were performed using 12 serial dilutions of each compound ranging from 0.002 to 300 μM (control compounds were serially diluted from 10 μM to 0.06 nM). The cannabinoid assays were incubated for 90 min at 37 °C with gentle agitation. The opioid assays were incubated for 60 min at room temperature. Bound radioligands were collected on GF/C (cannabinoid) or GF/B plates (opioid) and washed 10 times with ice-cold 50 mM Tris-HCl (pH 7.4)/0.1% BSA (cannabinoid) or ice-cold 50 mM Tris-HCl (pH 7.4) (opioid). Radiodetection was measured with 50 µL (cannabinoid) or 25 µL (opioid) of MicroScint^TM-20 on a TopCount NXT HTS Microplate Scintillation Counter (PerkinElmer, Waltham, MA, USA). The IC50 and Ki values were calculated via a non-linear curve fit model using GraphPad Prism 5.0 software (GraphPad Software, Inc., San Diego, CA, USA). Each compound was tested in triplicate unless stated otherwise.

Data set [3] can be described thus: Cytotoxicity, Neutral Red, Vero. The data set is classed as cell-based. The following applies: monkey, Vero kidney fibroblasts, Na = not active up to 50 µg/mL. As to the method: as §1
In another data set the test system is FoxO. Kind of data set: Luciferase reporter assay, FoxO, T98G. Particulars: Homo sapiens; T98G cells; no inducer; dash: no activity detected; read-out: IC50, FoxO (None). The data set is classed as cell-based. As to the method: as §2
A short description of data set [4]: Cytotoxicity, summary over the cell line panel. The data set is classed as cell-based. The following applies: human, HeLa, SK-MEL, KB and BT-549 cells; read-out: Cytotoxicity IC50 values, span over cell lines. As to the method: as §1
Another data set deals with NF-κB. The experiment in a line: Luciferase reporter assay, NF-κB, T98G. The data set is classed as cell-based. Particulars: Homo sapiens; T98G cells; inducer PMA. How it is done:
as §2

A further data set relates to Myc. Kind of data set: Luciferase reporter assay, Myc, T98G. The format is cell-based. The following applies: Homo sapiens; T98G cells; inducer PMA. As to the method: as §2
The nature of data set [5]: Cytotoxicity, Neutral Red, LLC-PK1. The format is cell-based. The following applies: pig, LLC-PK1 kidney epithelial cells, Na = not active up to 50 µg/mL. How it is done:
as §1

The subject of a further data set is AP-1. The experiment in a line: Luciferase reporter assay, AP-1, T98G. The data set is classed as cell-based. Particulars: T98G cells; inducer PMA. As to the method:
as §2

In a further data set the test system is Stat3. The experiment in a line: Luciferase reporter assay, Stat3, T98G. The data set is classed as cell-based. Particulars: Homo sapiens; T98G cells; inducer IL6. How it is done: as §2

Structures are written as SMILES. ≈ marks a conversion by molar mass, not a printed value. Bounds are passed on as bounds.

Take `C[C@H]1CC[C@H]2[C@H](C1)c1c(O)cc(/C=C/c3ccccc3O)cc1OC2(C)C` [compound 3, machaeriol C]: the “Cytotoxicity (in words)” value in [1] was “inactive”.

On to `C=C(C)[C@H]1CC[C@H](C)C[C@@H]1c1c(O)cc(/C=C/c2ccccc2O)cc1O` [compound 6, machaeridiol B], for which the IC50 with ETS is 5.9 µM; with E2F it was 0.7 µM; with Hedgehog, 5 µM; in the data set with FoxO, over 50 µM; with NF-κB, 4 µM; in the data set on Myc, 2 µM. Besides, the results for the IC50 with AP-1 and in the data set on Stat3 were 4.2 µM and 1.4 µM, respectively. Further, the IC50 at 48 h is 37 µg/mL (≈ 102 µM) in data set [2], 47 µg/mL (≈ 129 µM) in data set [3], 32 to 38 µg/mL (≈ 87.8 to 104 µM) in data set [4] and 37 µg/mL (≈ 102 µM) in data set [5]. The “Percent displacement, µ” value at μ opioid receptor (10 μM, [3H]-DAMGO) was 27.6%. Moreover, the inhibitory constant (Ki) at μ opioid receptor (NA = not active, read-out: μ Ki ± SEM) stood at 4.73 ± 0.84 µM.
